Earlier results, collected in patent US20130137759A1, “COMPOSITIONS AND METHODS FOR TREATING PARASITIC DISEASE” (Worcester Polytechnic Institute, priority 2010, published 2013).

What was measured:
[1] = rats, intragastric in 1:9 dimethyl-acetamide-oil, 10 mg kg^−1 (2,320 μg per rat)

C[C@@H]1CC[C@H]2[C@@H](C)C(=O)O[C@@H]3O[C@@]4(C)CC[C@@H]1[C@]32OO4 [artemisinin]
half-life (healthy male volunteers): 1 to 3 h
tmax (humans, pure AN (Rath et al. 2004)): 2.3 h

COc1cc2oc(-c3ccc(O)c(O)c3)c(OC)c(=O)c2c(O)c1OC [chrysosplenol-D]
effect on AN activity against P. falciparum (P. falciparum; combined with pure AN): significant enhancement of AN activity
direct effect on P. falciparum (P. falciparum; flavonoid alone): no direct effect

C[C@H]1[C@@H](O)O[C@@H]2O[C@@]3(C)CC[C@H]4[C@H](C)CC[C@@H]1[C@@]24OO3 [dihydroartemisinin]
Plasma/serum concentration Artemisinin Cmax [1]: 800 ng/mL
